In patent publication US11220668B2, “Method for reducing the trisulfide level in proteins” (Merck Patent GmbH, priority 2016, dated 2022):

Tested on: Recombinant CHO cells expressing an IgG1
Experiment: Fed-batch process with SSC feed; relative quantification of trisulfide linked peptides in IgG by LC-MS peptide mapping
Type: cell-based
Details: for mean reduction of trisulfide, LC-HC linked peptides: SSC feed (15 mM in main feed) compared to control condition with cysteine in separate feed; for mean reduction of trisulfide, linkage between cysteine 259 and cysteine 319 in the heavy chain: SSC feed compared to control condition with cysteine in separate feed
Method: Recombinant CHO cells expressing an IgG1 were grown in fully chemically defined basal media (Cellvento® CHO 220) containing 1.5 mM cysteine. At days 3, 5, 7, 10, 14; feed(s) containing either cysteine or S-sulfocysteine were added.
For the control condition, the main feed included vitamins, trace elements and amino acid except cysteine because of the low stability of this amino acid. 150 mM of cysteine was dissolved in a separate feed at pH 11. The main feed was added at 3%, 6%, 6%, 6% and 6% (v/v) whereas cysteine was added at 0.3%, 0.6%, 0.6%, 0.6% and 0.6% on day 3, 5, 7, 10 and 14, respectively.
For the SSC condition, the main feed included the same vitamins, trace elements and amino acids and was further supplemented with 15 mM of S-sulfocysteine di-sodium salt. The main feed was added 3%, 6%, 6%, 6% and 6% (v/v) day 3, 5, 7, 10 and 14 respectively, resulting in the same amount of cysteine source when compared to the control condition. Glucose was monitored on a daily basis for both conditions and adjusted to 6 g/L using a 400 g/L solution.
The process was performed in 1.2 L bioreactors at 37° C., pH 7.0, 50% dissolved oxygen, agitation 140 rpm.
Samples were taken from the bioreactors for the trisulfide analysis on day 13 and day 18. After sampling, cell culture supernatant was centrifuged 5 min at 1500 rpm, the IgG concentration was quantified using an automatic turbidometric method (Cedex bioHT) and frozen for further processing.
IgG were purified from the frozen samples using protein A binding (Phytips method) and were eluted in 200 mM NAH2PO4; 140 mM NaCl and 96 mM Tris HCl and quantified again.
First, the free cysteines in the samples were alkylated by addition of N-ethylmaleiimide (10 mM solution in 0.1 M Na acetate buffer pH 5.0) for 30 min in the dark.
For digestion with Lys-C, 55 μL digestion buffer (8 M urea, 0.1 M Tris, pH 7) and 15 μL Lys-C enzyme (Promega, V1671) were added and the samples were incubated for 4 hours at 37° C. Subsequently, the samples were diluted to 1 M urea by addition of […] and were digested by addition of 12 μL trypsin over night at 37° C. The final antibody concentration was 50 mg/L. For the analysis of the disulfide and trisulfide bonds, the sample was treated with 10% formic acid (4.4 μL) to stop the digestion and analyzed by LC-MS.
The peptide mixture obtained was injected and separated using reversed phase HPLC (RSLC3000 nano LC, Thermo Scientific Dionex, Idstein, Germany). A nanoLC column (Acquity UPLC M-Class HSS T3, 1.8 μm, 75 μm×150 mm, Waters) with a cartridge (PM100, C18, 5 μm, 0.3×5 mm, Thermo Scientific Dionex, Idstein, Germany) was used for preconcentration and separation of the sample. Blank runs and column wash runs were performed within consecutive sample runs. […]

N[C@@H](CSS(=O)(=O)[O-])C(=O)[O-].[Na+].[Na+] [SSC, S-sulfocysteine di-sodium salt] was tested, and the “mean reduction of trisulfide, LC-HC linked peptides” value (day 13 of fed-batch) was 93.3%, the “mean reduction of trisulfide, linkage between cysteine 259 and cysteine 319 in the heavy chain” value (day 13 of fed-batch) was 46.7% and the “mean reduction of trisulfide, LC-HC linked peptides” value (day 18 of fed-batch) was 92.4%. For the same compound, the “mean reduction of trisulfide, linkage between cysteine 259 and cysteine 319 in the heavy chain” value (day 18 of fed-batch) was 25.9%.
